Laboratory results taken from patent US8871794B2, “Small-molecule agonists for type-2 orexin receptor” (Board of Regents, The University of Texas System, priority 2008, dated 2014).
Where two headings read alike, the source gives them in different places.

Experiments:
[1] = IV pharmacokinetics in C57BL/6 mice (plasma and brain); assay type: in vivo, mouse; details: for Kp: brain/plasma, 10 mg/kg; for half-life: read-out: Terminal half life
Protocol: Pharmacokinetics: Methods: Chembridge Compound 6037874 (“Yan7874”) was provided as a powdered stock and dissolved in DMSO at 50 mg/ml. The compound was formulated as 5% DMSO/5% Cremaphor EL/90% 5% dextrose, pH 7.2 such that compound could be administered to mice at 10-20 mg/kg in a volume of 0.2 ml by IV bolus.
The mice were sacrificed in groups of three by inhalation overdose of CO2 and blood and brain obtained. Plasma was subsequently isolated from the […] by centrifugation in a refrigerated microcentrifuge at 10,000 rpm for 10′. The brain was washed extensively with PBS, blotted dry, weighed, and snap frozen in liquid nitrogen.
An analytical method was developed to detect Yan7874 using LC/MS/MS.
A standard curve was developed in plasma in the following manner. 100 μl of plasma is spiked with varying concentrations of Yan7874. The plasma is allowed to sit 10′ at room temperature after vortexing. 200 μl of acetonitrile is added to precipitate plasma proteins and release bound drug. After vortexing, the sample is incubated 10′ at room temperature. 700 μl of PBS is added and the sample is centrifuged at 14,000 rpm in a standard microcentrifuge for 5′. 900 μl of supernatant is added to 1 ml of PBS. The entire sample is passed over a Waters OASIS HLB solid phased extraction column already primed by addition of 2 ml methanol and 2 ml H2O. The column is washed once with 2 ml of 5% methanol/2% NH4OH in H2O and once with 2 ml of 5% methanol/2% acetic acid in H2O and compound is eluted by addition of 2 ml of methanol containing 2% NH4OH. 500 μl of this is added to 500 μl of H2O containing 0.2% formic acid (final formic acid 0.1%). Samples are prepared in the same manner without addition of spiked compound. Brain tissue is prepared by homogenizing in 3× volume of PBS (weight in grams×3=volume in ml to add). 100 μl of blank brain lysate is used for preparation of standard curve samples while 100 μl of sample brain lysate is used for preparation of samples. To calculate brain levels, the concentration in ng/ml calculated from the standard curve is multiplied by the total volume of lysate (a value in ml estimated from the 3× volume of PBS added +1× volume to account for brain tissue itself) and then divided by the weight of the brain in grams. A value of 3× above the signal obtained from blank plasma or brain lysate is designated the limit of detection (LOD). The LOD for plasma is 2640 and for brain 459. The limit of quantitation (LOQ) is the lowest concentration at which back calculation yields a concentration within 20% of theoretical. The LOQ for both plasma and brain is 5 ng/ml. In general back calculation of points on both curves yielded values within 20% of theoretical over 4 orders of magnitude (10,000 to 5 ng/ml) for both sample types.

OX2R [2] = target: T1, OX2R (Homo sapiens, UniProt O43614); assay: Intracellular Calcium Transient Assay in OX2R-expressing CHO cells; assay type: cell-based; design: expressed in transfected cells
T1 sequence (O43614 1-444): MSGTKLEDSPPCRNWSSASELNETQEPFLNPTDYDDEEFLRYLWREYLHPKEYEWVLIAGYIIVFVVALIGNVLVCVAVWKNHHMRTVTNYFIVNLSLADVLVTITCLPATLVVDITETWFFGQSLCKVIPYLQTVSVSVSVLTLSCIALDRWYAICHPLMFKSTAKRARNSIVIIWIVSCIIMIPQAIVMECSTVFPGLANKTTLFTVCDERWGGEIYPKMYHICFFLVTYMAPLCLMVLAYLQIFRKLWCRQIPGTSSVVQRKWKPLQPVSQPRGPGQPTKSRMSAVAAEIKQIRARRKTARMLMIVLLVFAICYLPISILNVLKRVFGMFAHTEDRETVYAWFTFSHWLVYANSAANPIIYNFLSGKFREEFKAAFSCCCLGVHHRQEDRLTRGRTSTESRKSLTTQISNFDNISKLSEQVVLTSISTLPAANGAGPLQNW
Protocol: DNA Construction: Open reading frames of OX1R, OX2R and GRP (control) receptor were inserted into a bicistronic retrovirus expression vector, pMXs-IRES-puror (pMXs-IP), which carried a FLAG™ epitope cDNA sequence at the beginning of the ORF sequences encoding their human polypeptides.
Transfection and retrovirus production: Transfection was carried out using FuGENE 6 (Roche Diagnostics Corp.) according to the manufacturer's recommendations. Retroviruse fluid was harvested after 48 hours post transfection.
Cell lines: To generate receptor expressing cells, CHO cells harboring ecotropic retroviral receptor were infected with a retroviral supernatant. After 24 hours post infection, the retrovirus supernatant was removed and infected cells were selected with 10 μg/ml of puromycin (Sigma-Aldrich, St. Louis, Mo.). […]
0.5 ml aliquot of the cell suspension was stimulated by addition of 5 μl of compound dissolved in DMSO. Changes of [Ca^2+]i transients in cells were measured at RT by using CAF-110 Intracellular Ion Analyser (JASCO, Tokyo) with the excitation wave lengths of 340 nm and 380 nm and emission wavelength of 500 nm

OX2R [3] = target: T1, OX2R; assay: NFAT-luciferase transcriptional reporter assay in transiently co-transfected HEK293T cells; assay type: cell-based; design: expressed in transfected cells; host or cells: HEK293T cells, transient co-transfection
[4] = male, C57BL/6, mouse, IV 10 mg/kg, brain
[5] = male, C57BL/6, mouse, IV 10 mg/kg, plasma

Cc1ccc(Cn2c(=N)n(CC(O)c3ccc(Cl)c(Cl)c3)c3ccccc32)cc1 (stereo not drawn) [Compound 130699]
acute reaction after injection ([1]; 10 mg/kg IV): no acute reactions were noted | time after dosing at which peak brain levels achieved ([1]; 10 mg/kg iv): 30 min | peak levels in brain tissue ([1]; 10 mg/kg iv, 30 minutes after dosing): ~2.5 µg/g | brain penetration ([1]; 10 mg/kg iv, mice): good brain penetration | acute reaction after injection ([1]; 20 mg/kg IV, first two mice): relatively severe reaction marked by a mild seizure and reduced activity for several hours | AUC ([1]; IV 10 mg/kg, brain): 485,627 min*ng/g | Clearance ([1]; IV 10 mg/kg, brain): 0.4 g/min | Kp ([1]; male, C57BL/6, mouse, intravenous, 10 mg/kg iv, read-out: peak brain concentrations relative to peak levels in plasma): ~5 | Kp ([1]; male, C57BL/6, mouse, iv, IV 10 mg/kg, read-out: Blood Brain Penetration Ratio: AUC brain/AUC plasma): 5.2 | Kp ([1]; male, C57BL/6, mouse, iv, IV 10 mg/kg, read-out: Blood Brain Penetration Ratio: Cmax brain/Cmax plasma): 4.8 | concentration at 24 h ([1]; male, C57BL/6, mouse, brain, 10 mg/kg iv, 24 hours, read-out: brain levels persisting at 24 hours post-injection): 5 ng/g | Cmax [1, 4]: 2480 ng/g | half-life [1, 4]: 3.12 h | Cmax [1, 5]: 512 ng/mL | AUC ([1]; male, C57BL/6, mouse, IV 10 mg/kg, plasma, read-out: AUC (area under the concentration-time curve) (converted)): 1530 ng·h/mL | Clearance ([1]; male, C57BL/6, mouse, IV 10 mg/kg, plasma, read-out: Clearance): 2.1 mL/min | half-life [1, 5]: 1.52 h | Ca2+ response (OX2R [2]): robust Ca2+ response | activation in transcriptional reporter assays (OX2R [3]; HEK293T cells, NFAT-luciferase reporter plasmid and receptor cDNA plasmid): dramatic activation | Fold Induction, OX2R_NFTA (1) (OX2R [3]; assay (1)): 10.94 | Fold Induction, OX2R_NFTA (2) (OX2R [3]; assay (2)): 35.566
